Test results published in ChEMBL document CHEMBL4507268 (2021).

What was measured:
[1] = target: Serine/threonine-protein kinase PAK 1 (Homo sapiens) (UniProt Q13153); settings: Compound concentration 1000.0 nM
[2] = test system: Phosphatidylinositol 4,5-bisphosphate 3-kinase catalytic subunit alpha isoform (Homo sapiens), P42336 [M1043I]; settings: Compound concentration 1000.0 nM
[3] = target: Ribosomal protein S6 kinase alpha-5 (Homo sapiens) (UniProt O75582); settings: Compound concentration 1000.0 nM
Chain of Ribosomal protein S6 kinase alpha-5 (Homo sapiens) (O75582 whole entry, looked up): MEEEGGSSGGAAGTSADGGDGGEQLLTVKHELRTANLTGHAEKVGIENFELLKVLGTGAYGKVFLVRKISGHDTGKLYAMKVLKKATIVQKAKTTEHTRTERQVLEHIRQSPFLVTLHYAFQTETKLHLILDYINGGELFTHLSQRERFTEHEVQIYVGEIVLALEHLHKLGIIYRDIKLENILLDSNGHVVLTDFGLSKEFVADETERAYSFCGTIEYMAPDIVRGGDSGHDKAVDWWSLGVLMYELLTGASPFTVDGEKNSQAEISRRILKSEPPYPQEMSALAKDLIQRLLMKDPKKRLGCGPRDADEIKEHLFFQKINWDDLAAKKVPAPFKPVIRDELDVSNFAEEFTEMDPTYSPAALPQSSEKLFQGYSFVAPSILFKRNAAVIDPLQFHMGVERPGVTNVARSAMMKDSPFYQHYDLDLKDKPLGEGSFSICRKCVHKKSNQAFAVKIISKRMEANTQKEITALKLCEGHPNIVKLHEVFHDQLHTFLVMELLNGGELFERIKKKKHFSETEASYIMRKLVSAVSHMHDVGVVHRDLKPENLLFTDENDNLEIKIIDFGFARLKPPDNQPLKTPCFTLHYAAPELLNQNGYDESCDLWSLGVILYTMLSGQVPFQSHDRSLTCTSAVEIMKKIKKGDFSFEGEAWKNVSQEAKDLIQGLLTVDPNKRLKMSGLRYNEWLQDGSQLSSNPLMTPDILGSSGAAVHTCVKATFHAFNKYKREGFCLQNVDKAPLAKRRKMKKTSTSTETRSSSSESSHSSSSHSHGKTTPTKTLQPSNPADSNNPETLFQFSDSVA

[4] = test system: Hepatocyte growth factor receptor (Homo sapiens), P08581 [Y1235D]; settings: Compound concentration 1000.0 nM
[5] = target: Microtubule-associated serine/threonine-protein kinase 1 (Homo sapiens) (UniProt Q9Y2H9); settings: Compound concentration 1000.0 nM
Chain of Microtubule-associated serine/threonine-protein kinase 1 (Homo sapiens) (Q9Y2H9 whole entry, looked up): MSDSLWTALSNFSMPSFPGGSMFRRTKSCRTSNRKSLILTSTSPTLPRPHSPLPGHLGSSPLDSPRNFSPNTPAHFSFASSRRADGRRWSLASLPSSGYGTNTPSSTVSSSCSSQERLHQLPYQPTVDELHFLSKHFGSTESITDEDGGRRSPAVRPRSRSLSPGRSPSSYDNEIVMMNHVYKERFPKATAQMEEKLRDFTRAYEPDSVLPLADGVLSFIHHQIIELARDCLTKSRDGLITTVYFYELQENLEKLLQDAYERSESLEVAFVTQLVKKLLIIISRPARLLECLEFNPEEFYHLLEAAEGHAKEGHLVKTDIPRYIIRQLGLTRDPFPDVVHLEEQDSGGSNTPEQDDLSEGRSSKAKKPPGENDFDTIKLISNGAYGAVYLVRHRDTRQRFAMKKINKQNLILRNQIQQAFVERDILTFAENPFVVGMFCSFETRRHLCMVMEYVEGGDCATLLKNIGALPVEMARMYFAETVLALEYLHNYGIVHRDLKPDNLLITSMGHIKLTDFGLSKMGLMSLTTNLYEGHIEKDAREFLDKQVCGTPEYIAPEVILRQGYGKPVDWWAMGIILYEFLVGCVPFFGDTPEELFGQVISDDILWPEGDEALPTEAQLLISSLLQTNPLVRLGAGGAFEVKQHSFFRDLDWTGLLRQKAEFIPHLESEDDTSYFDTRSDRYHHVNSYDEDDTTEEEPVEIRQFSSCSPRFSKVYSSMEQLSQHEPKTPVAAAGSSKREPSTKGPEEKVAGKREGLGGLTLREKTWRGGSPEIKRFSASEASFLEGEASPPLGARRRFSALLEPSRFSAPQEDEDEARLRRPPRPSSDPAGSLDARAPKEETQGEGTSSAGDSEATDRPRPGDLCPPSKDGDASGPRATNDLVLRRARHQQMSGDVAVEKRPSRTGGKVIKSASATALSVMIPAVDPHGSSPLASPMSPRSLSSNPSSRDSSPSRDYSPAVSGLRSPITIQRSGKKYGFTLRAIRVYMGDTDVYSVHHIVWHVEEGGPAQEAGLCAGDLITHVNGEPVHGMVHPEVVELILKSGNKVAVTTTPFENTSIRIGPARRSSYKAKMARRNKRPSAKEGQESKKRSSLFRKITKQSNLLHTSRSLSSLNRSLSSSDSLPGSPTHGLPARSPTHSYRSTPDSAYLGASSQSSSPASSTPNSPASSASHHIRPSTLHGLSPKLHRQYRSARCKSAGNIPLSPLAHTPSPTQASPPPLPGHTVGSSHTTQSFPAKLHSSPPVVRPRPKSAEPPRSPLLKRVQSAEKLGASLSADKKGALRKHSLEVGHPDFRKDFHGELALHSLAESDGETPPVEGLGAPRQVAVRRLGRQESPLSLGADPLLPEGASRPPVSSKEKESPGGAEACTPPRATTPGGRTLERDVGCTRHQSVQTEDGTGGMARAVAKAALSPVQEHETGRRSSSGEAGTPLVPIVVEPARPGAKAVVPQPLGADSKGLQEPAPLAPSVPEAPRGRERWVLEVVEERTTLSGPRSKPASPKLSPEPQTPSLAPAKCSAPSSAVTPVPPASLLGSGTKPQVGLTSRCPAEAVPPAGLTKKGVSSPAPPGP

[6] = target: T1, Protein kinase C epsilon type (Homo sapiens) (UniProt Q02156); settings: Compound concentration 1000.0 nM
T1 sequence (whole entry): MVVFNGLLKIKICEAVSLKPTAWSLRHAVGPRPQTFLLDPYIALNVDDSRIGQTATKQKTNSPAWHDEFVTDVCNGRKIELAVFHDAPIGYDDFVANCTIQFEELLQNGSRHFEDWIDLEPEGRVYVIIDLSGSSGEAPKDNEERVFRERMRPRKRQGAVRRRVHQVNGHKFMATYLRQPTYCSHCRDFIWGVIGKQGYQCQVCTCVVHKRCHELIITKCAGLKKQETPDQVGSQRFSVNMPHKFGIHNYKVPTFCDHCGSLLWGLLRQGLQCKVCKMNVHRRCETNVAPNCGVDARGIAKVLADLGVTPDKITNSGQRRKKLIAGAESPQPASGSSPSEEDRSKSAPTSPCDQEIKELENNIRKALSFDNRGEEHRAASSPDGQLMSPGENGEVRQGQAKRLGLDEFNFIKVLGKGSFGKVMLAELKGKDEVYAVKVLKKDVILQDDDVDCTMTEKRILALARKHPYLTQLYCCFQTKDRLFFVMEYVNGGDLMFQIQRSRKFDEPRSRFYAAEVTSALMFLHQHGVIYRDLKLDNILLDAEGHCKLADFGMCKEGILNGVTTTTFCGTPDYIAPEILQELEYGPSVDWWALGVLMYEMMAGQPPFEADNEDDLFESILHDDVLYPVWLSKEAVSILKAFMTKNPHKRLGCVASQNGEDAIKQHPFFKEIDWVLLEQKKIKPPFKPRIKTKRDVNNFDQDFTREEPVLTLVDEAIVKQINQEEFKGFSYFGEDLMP

[7] = target: Interferon-induced, double-stranded RNA-activated protein kinase (Homo sapiens) (UniProt P19525); settings: Compound concentration 1000.0 nM
[8] = target: Serine/threonine-protein kinase PLK1 (Homo sapiens) (UniProt P53350); settings: Compound concentration 1000.0 nM
[9] = target: 5-hydroxytryptamine receptor 2B (Homo sapiens) (UniProt P41595); settings: Compound concentration 10.0 uM
[10] = target: Cyclin-dependent kinase 2 homolog (Plasmodium falciparum (isolate 3D7)) (UniProt P61075); settings: Compound concentration 1000.0 nM
Chain of Cyclin-dependent kinase 2 homolog (Plasmodium falciparum (isolate 3D7)) (P61075 whole entry): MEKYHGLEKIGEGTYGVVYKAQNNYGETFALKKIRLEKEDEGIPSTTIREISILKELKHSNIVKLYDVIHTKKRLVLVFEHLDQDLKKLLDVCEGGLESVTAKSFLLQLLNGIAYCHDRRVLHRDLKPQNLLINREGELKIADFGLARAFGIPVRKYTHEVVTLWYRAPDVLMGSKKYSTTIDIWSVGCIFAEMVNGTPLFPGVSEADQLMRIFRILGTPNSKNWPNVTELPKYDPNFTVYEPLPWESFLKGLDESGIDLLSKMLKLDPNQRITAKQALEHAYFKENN

[11] = target: T2, Serine/threonine-protein kinase TAO3 (Homo sapiens) (UniProt Q9H2K8); settings: Compound concentration 1000.0 nM
T2 sequence (whole entry): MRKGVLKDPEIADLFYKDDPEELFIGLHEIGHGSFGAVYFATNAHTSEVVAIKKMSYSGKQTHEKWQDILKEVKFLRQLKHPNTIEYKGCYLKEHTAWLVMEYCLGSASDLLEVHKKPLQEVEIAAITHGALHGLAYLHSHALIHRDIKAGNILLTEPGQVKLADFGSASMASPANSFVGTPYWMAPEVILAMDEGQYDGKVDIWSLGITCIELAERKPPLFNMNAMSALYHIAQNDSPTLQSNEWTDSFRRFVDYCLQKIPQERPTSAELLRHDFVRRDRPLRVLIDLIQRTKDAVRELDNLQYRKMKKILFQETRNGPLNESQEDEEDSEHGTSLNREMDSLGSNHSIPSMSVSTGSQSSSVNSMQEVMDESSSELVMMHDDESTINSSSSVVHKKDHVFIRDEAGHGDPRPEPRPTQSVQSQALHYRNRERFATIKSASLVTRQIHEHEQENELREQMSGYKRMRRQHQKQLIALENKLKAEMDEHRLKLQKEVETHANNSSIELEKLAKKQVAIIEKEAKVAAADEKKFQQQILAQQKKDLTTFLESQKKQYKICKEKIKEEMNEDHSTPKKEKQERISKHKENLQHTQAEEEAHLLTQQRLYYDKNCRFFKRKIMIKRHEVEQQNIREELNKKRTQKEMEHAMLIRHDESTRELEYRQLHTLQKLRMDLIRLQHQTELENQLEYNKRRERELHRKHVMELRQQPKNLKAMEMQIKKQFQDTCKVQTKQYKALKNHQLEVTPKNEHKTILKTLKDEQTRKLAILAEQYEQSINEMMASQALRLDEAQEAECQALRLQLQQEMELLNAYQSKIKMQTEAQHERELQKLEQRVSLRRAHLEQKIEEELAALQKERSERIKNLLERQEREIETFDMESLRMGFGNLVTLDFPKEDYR

[12] = target: Tyrosine-protein kinase Lck (Homo sapiens) (UniProt P06239); settings: Compound concentration 1000.0 nM
[13] = target: 5-hydroxytryptamine receptor 1A (Homo sapiens) (UniProt P08908); settings: Compound concentration 10.0 uM
[14] = target: SRSF protein kinase 3 (Homo sapiens) (UniProt Q9UPE1); settings: Compound concentration 1000.0 nM
[15] = target: Membrane-associated tyrosine- and threonine-specific cdc2-inhibitory kinase (Homo sapiens) (UniProt Q99640); settings: Compound concentration 1000.0 nM
[16] = target: Ribosomal protein S6 kinase beta-1 (Homo sapiens) (UniProt P23443); settings: Compound concentration 1000.0 nM
[17] = target: Serine/threonine-protein kinase Chk2 (Homo sapiens) (UniProt O96017); settings: Compound concentration 1000.0 nM
[18] = target: Mitogen-activated protein kinase kinase kinase 13 (Homo sapiens) (UniProt O43283); settings: Compound concentration 1000.0 nM
Chain of Mitogen-activated protein kinase kinase kinase 13 (Homo sapiens) (O43283 whole entry): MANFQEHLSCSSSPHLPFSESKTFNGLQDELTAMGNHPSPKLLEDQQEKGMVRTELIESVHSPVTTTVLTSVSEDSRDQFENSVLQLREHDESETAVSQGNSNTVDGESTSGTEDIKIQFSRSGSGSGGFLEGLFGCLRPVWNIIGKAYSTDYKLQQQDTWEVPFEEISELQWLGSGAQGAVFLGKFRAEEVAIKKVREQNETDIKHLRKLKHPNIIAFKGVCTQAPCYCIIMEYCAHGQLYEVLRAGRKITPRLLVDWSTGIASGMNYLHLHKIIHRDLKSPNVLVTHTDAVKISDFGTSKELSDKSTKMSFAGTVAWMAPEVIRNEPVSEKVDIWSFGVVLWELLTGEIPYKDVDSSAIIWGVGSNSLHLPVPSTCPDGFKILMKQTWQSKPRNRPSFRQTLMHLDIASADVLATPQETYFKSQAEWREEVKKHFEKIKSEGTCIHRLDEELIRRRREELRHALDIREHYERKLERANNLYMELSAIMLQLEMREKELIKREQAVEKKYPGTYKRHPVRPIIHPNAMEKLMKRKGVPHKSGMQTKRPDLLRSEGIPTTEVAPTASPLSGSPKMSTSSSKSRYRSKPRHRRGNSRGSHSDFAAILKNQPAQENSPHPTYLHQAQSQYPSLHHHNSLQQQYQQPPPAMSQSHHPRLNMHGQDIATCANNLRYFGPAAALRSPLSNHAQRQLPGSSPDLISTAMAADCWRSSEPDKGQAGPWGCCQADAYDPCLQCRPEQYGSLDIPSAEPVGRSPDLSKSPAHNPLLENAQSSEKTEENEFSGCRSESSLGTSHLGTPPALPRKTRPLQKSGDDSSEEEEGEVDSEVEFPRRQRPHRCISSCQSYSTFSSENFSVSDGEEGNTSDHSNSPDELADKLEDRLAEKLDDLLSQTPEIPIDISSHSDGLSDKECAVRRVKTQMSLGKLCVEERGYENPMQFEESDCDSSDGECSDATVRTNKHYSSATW

Chain of Phosphatidylinositol 4,5-bisphosphate 3-kinase catalytic subunit alpha isoform (Homo sapiens), P42336 [M1043I] (P42336 whole entry M1043I, canonical isoform): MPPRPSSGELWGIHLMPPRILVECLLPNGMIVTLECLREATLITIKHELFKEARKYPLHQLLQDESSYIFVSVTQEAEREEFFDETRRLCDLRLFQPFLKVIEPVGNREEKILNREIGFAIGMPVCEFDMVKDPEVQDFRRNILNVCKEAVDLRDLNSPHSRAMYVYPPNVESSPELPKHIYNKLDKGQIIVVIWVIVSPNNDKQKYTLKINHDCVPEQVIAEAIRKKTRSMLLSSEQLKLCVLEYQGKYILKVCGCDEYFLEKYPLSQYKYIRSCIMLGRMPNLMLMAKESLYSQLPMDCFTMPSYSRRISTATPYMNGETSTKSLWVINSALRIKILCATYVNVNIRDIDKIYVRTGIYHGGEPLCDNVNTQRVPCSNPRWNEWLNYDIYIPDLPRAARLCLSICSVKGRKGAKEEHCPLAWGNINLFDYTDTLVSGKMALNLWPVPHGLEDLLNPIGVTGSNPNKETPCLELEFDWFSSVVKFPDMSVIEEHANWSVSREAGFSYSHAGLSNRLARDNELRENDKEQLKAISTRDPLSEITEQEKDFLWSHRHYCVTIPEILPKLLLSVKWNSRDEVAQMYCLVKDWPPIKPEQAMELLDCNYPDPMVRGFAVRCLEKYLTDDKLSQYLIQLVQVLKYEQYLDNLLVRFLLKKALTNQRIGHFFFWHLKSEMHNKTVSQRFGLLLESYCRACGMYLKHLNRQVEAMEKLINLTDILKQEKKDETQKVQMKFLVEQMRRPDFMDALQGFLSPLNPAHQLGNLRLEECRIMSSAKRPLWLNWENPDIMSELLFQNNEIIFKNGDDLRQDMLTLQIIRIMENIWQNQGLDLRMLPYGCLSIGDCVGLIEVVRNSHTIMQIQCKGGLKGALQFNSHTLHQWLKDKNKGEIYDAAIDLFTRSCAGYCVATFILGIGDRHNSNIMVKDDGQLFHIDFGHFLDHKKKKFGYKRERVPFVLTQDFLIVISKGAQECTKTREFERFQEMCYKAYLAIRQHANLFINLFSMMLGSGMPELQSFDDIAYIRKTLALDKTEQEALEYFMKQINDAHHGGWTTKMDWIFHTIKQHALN

Cc1nc(C2CCN(C(=O)c3ccc(OC(F)(F)F)cc3N)CC2)c2ncc(N3CCN(C)CC3)cc2n1 [BAY-693]
inactive: residual activity [1] 100% | residual activity [2] 96% | residual activity [3] 100% | residual activity [4] 98% | residual activity [5] 100% | residual activity [6] 100% | residual activity [7] 95% | residual activity [8] 79% | inhibition [9] -1.28% | residual activity [10] 100% | residual activity [11] 100% | residual activity [12] 100% | inhibition [13] -3.88% | residual activity [14] 100% | residual activity [15] 100% | residual activity [16] 99% | residual activity [17] 100% | residual activity [18] 100%

CN1CCN(c2cnc3c(C4CCN(C(=O)c5ccc(OC(F)(F)F)cc5N)CC4)ncnc3c2)CC1 [BAY-885]
inactive: residual activity [1] 93% | residual activity [2] 100% | residual activity [3] 100% | residual activity [4] 73% | residual activity [5] 100% | residual activity [6] 100% | residual activity [7] 85% | residual activity [8] 93% | inhibition [9] 3.56% | residual activity [10] 100% | residual activity [11] 100% | residual activity [12] 100% | inhibition [13] 7.38% | residual activity [14] 100% | residual activity [15] 100% | residual activity [16] 90% | residual activity [17] 100% | residual activity [18] 100%
